{"source": "ChEMBL document CHEMBL1139319", "about": "“Notoamides F-K, prenylated indole alkaloids isolated from a marine-derived Aspergillus sp” (J Nat Prod, 2008)", "data": [{"test_system": "HeLa", "test": "Cytotoxicity against human HeLa cells after 3 days by MTT assay", "format": "functional, cell-based", "conditions": "72 h", "units": {"IC50": "µg/mL"}, "values": [{"compound": "CO[C@H]1c2c([nH]c3c4c(ccc23)OC(C)(C)C=C4)C(C)(C)[C@@H]2C[C@]34CCCN3C(=O)[C@]12NC4=O", "note": "[NOTOAMIDE F]", "IC50": "> 50"}, {"compound": "CC1(C)C=Cc2c(ccc3c4c([nH]c23)C(C)(C)[C@@H]2C[C@]35CCCN3C(=O)[C@]2(NC5=O)C4=O)O1", "note": "[NOTOAMIDE I]", "IC50": 21}, {"compound": "C=CC(C)(C)[C@]1(C[C@@H]2NC(=O)[C@@H]3CCCN3C2=O)C(=O)Nc2cc(O)ccc21", "note": "[NOTOAMIDE J]", "IC50": "> 50"}, {"compound": "C=CC(C)(C)[C@@]12Nc3c(ccc4c3C=CC(C)(C)O4)[C@]1(O)C[C@]1(O)C(=O)N3CCC[C@H]3C(=O)N21", "note": "[NOTOAMIDE K]", "IC50": "> 50"}]}]}
